Data published in patent publication US8735414B2 (priority 2009, dated 2014).
pIC50: −log10 of the molar value.

Assays:
[1] = system: bicistronic HCV replicon (replicon RNA, GenBank Accession No. AJ242654); assay: HCV Replicon Assay; format: cell-based; details: Hepatitis C virus, 72 h, read-out: Replicon IC50

SMILES	melting point [°C]	pIC50 [1]
Cc1cc2c(cc1Cl)c(C(N)=O)c(-c1ncc(S(=O)(=O)N[C@@H](C)C(F)(F)F)cn1)n2C1CCC1 [compound 733, 5-chloro-1-cyclobutyl-6-methyl-2-(5-{[(2S)-1,1,1-trifluoropropan-2-yl]sulfamoyl}pyrimidin-2-yl)-1H-indole-3-carboxamide]	171 to 173	> 6.30
Cc1cc2c(cc1Cl)c(C(N)=O)c(-c1ccc(S(=O)(=O)N[C@@H](C)C(F)(F)F)cn1)n2C1CCC1 [compound 734, 5-chloro-1-cyclobutyl-6-methyl-2-(5-{[(2S)-1,1,1-trifluoropropan-2-yl]sulfamoyl}pyridin-2-yl)-1H-indole-3-carboxamide]	207 to 209	> 6.30
Cc1cc2c(cc1Cl)c(C(N)=O)c(-c1ccc(S(=O)(=O)N[C@H](C)C(F)(F)F)cn1)n2C1CCC1 [compound 735, 5-chloro-1-cyclobutyl-6-methyl-2-(5-{[(2R)-1,1,1-trifluoropropan-2-yl]sulfamoyl}pyridin-2-yl)-1H-indole-3-carboxamide]	208 to 210	> 6.30
C[C@H](NS(=O)(=O)c1ccc(-c2c(C(N)=O)c3cc(F)c(Cl)cc3n2C2CCC2)nc1)C(F)(F)F [compound 736, 6-chloro-1-cyclobutyl-5-fluoro-2-(5-{[(2S)-1,1,1-trifluoropropan-2-yl]sulfamoyl}pyridin-2-yl)-1H-indole-3-carboxamide]	241 to 243	> 6.30
Cc1cc2c(cc1F)c(C(N)=O)c(-c1ccc(S(=O)(=O)N[C@@H](C)C(F)(F)F)cn1)n2C1CCC1 [compound 737, 1-cyclobutyl-5-fluoro-6-methyl-2-(5-{[(2S)-1,1,1-trifluoropropan-2-yl]sulfamoyl}pyridin-2-yl)-1H-indole-3-carboxamide]	190 to 194	> 6.30
CC[C@H](NS(=O)(=O)c1ccc(-c2c(C#N)c3cc(F)c(OC(F)F)cc3n2C2CCC2)nc1)C(F)(F)F [compound 738, 6-[3-cyano-1-cyclobutyl-6-(difluoromethoxy)-5-fluoro-1H-indol-2-yl]-N-[(2S)-1,1,1-trifluorobutan-2-yl]pyridine-3-sulfonamide]	166 to 173	> 6.30
Cc1cc2c(cc1F)c(C#N)c(-c1ccc(S(=O)(=O)N[C@@H](C)C(F)(F)F)cn1)n2-c1ncccc1C [compound 739, 6-[3-cyano-5-fluoro-6-methyl-1-(3-methylpyridin-2-yl)-1H-indol-2-yl]-N-[(2S)-1,1,1-trifluoropropan-2-yl]pyridine-3-sulfonamide]	219 to 221	> 6.30
Cc1cc2c(cc1F)c(C#N)c(-c1ccc(S(=O)(=O)N[C@@H](C)C(F)(F)F)cn1)n2-c1ccc(C(F)(F)F)cn1 [compound 740, 6-{3-cyano-5-fluoro-6-methyl-1-[5-(trifluoromethyl)pyridin-2-yl]-1H-indol-2-yl}-N-[(2S)-1,1,1-trifluoropropan-2-yl]pyridine-3-sulfonamide]	253 to 255	> 6.30
C[C@H](NS(=O)(=O)c1ccc(-c2c(C(=O)O)c3cc(F)ccc3n2C2CCCCC2)nc1)C(F)(F)F [compound 741, 1-cyclohexyl-5-fluoro-2-(5-{[(2S)-1,1,1-trifluoropropan-2-yl]sulfamoyl}pyridin-2-yl)-1H-indole-3-carboxylic acid]	216 to 220	5.70 to 6.30
Cc1cc2c(cc1F)c(C#N)c(-c1ccc(S(=O)(=O)N[C@@H](C)C(F)(F)F)cn1)n2-c1ccc(C#N)cn1 [compound 743, 6-[3-cyano-1-(5-cyanopyridin-2-yl)-5-fluoro-6-methyl-1H-indol-2-yl]-N-[(2S)-1,1,1-trifluoropropan-2-yl]pyridine-3-sulfonamide]	276 to 277	> 6.30
Cc1cc2c(cc1F)c(C#N)c(-c1ccc(S(=O)(=O)N[C@@H](C)C(F)(F)F)cn1)n2-c1ccc([N+](=O)[O-])cn1 [compound 744, 6-[3-cyano-5-fluoro-6-methyl-1-(5-nitropyridin-2-yl)-1H-indol-2-yl]-N-[(2S)-1,1,1-trifluoropropan-2-yl]pyridine-3-sulfonamide]	260 to 263	> 6.30
CC(C)NS(=O)(=O)c1cnc(-c2c(C(N)=O)c3cc(Cl)ccc3n2C2CCC2)nc1 [compound 745, 5-chloro-1-cyclobutyl-2-[5-(propan-2-ylsulfamoyl)pyrimidin-2-yl]-1H-indole-3-carboxamide]	245 to 247	> 6.30
C[C@H](NS(=O)(=O)c1cnc(-c2c(C(N)=O)c3ccc(OC(F)F)cc3n2C2CCCCC2)nc1)C(F)(F)F [compound 746, 1-cyclohexyl-6-(difluoromethoxy)-2-(5-{[(2S)-1,1,1-trifluoropropan-2-yl]sulfamoyl}pyrimidin-2-yl)-1H-indole-3-carboxamide]	217 to 219	> 6.30
CC(C)NS(=O)(=O)c1cnc(-c2c(C(N)=O)c3ccc(OC(F)F)cc3n2C2CCCCC2)nc1 [compound 747, 1-cyclohexyl-6-(difluoromethoxy)-2-[5-(propan-2-ylsulfamoyl)pyrimidin-2-yl]-1H-indole-3-carboxamide]	216 to 218	> 6.30
COc1cc2c(C#N)c(-c3ccc(S(=O)(=O)N[C@@H](C)C(F)(F)F)cn3)n(C3CCC3)c2cc1C [compound 757, 6-(3-cyano-1-cyclobutyl-5-methoxy-6-methyl-1H-indol-2-yl)-N-[(2S)-1,1,1-trifluoropropan-2-yl]pyridine-3-sulfonamide]	222 to 223	5.70 to 6.30
CCNC(=O)c1c(-c2ccc(S(=O)(=O)N[C@@H](C)C(F)(F)F)cn2)n(C2CCCC2)c2cc(C)c(F)cc12 [compound 762, 1-cyclopentyl-N-ethyl-5-fluoro-6-methyl-2-(5-{[(2S)-1,1,1-trifluoropropan-2-yl]sulfamoyl}pyridin-2-yl)-1H-indole-3-carboxamide]	160 to 162	> 6.30
Cc1cc2c(cc1F)c(C(=O)NC(C)C)c(-c1ccc(S(=O)(=O)N[C@@H](C)C(F)(F)F)cn1)n2C1CCCC1 [compound 763, 1-cyclopentyl-5-fluoro-6-methyl-N-(propan-2-yl)-2-(5-{[(2S)-1,1,1-trifluoropropan-2-yl]sulfamoyl}pyridin-2-yl)-1H-indole-3-carboxamide]	234 to 236	5.70 to 6.30
CCc1cc2c(cc1F)c(C#N)c(-c1ccc(S(=O)(=O)NC(C)(C)C)cn1)n2C1CCC1 [compound 764, N-tert-butyl-6-(3-cyano-1-cyclobutyl-6-ethyl-5-fluoro-1H-indol-2-yl)pyridine-3-sulfonamide]	186 to 188	> 6.30
Cc1cc2c(cc1F)c(C(=O)O)c(-c1ccc(S(=O)(=O)NC(C)(C)C(F)(F)F)cn1)n2C1CCCC1 [compound 765, 1-cyclopentyl-5-fluoro-6-methyl-2-{5-[(1,1,1-trifluoro-2-methylpropan-2-yl)sulfamoyl]pyridin-2-yl}-1H-indole-3-carboxylic acid]	233 to 234	> 6.30
Cc1cc2c(cc1F)c(C(=O)O)c(-c1ccc(S(=O)(=O)NC(C)(C)C)cn1)n2C1CCCC1 [compound 766, 2-[5-(tert-butylsulfamoyl)pyridin-2-yl]-1-cyclopentyl-5-fluoro-6-methyl-1H-indole-3-carboxylic acid]	238 to 240	> 6.30
Cc1cc2c(cc1F)c(C(N)=O)c(-c1ccc(S(=O)(=O)N[C@H](C)C(F)(F)F)cn1)n2C1CCOCC1 [compound 767, 5-fluoro-6-methyl-1-(tetrahydro-2H-pyran-4-yl)-2-(5-{[(2R)-1,1,1-trifluoropropan-2-yl]sulfamoyl}pyridin-2-yl)-1H-indole-3-carboxamide]	258 to 262	> 6.30
Cc1cc2c(cc1F)c(C(N)=O)c(-c1ccc(S(=O)(=O)NC(C)(C)C(F)(F)F)cn1)n2C1CCOCC1 [compound 768, 5-fluoro-6-methyl-1-(tetrahydro-2H-pyran-4-yl)-2-{5-[(1,1,1-trifluoro-2-methylpropan-2-yl)sulfamoyl]pyridin-2-yl}-1H-indole-3-carboxamide]	200 to 206	> 6.30
Cc1cc2c(cc1F)c(C(N)=O)c(-c1ccc(S(=O)(=O)N[C@@H](C)C(F)(F)F)cn1)n2C1CCOCC1 [compound 769, 5-fluoro-6-methyl-1-(tetrahydro-2H-pyran-4-yl)-2-(5-{[(2S)-1,1,1-trifluoropropan-2-yl]sulfamoyl}pyridin-2-yl)-1H-indole-3-carboxamide]	261 to 264	> 6.30
CSc1cc2c(cc1F)c(C#N)c(-c1ccc(S(=O)(=O)N[C@@H](C)C(F)(F)F)cn1)n2C1CCC1 [compound 772, 6-[3-cyano-1-cyclobutyl-5-fluoro-6-(methylsulfanyl)-1H-indol-2-yl]-N-[(2S)-1,1,1-trifluoropropan-2-yl]pyridine-3-sulfonamide]	201 to 203	> 6.30
CCc1cc2c(cc1F)c(C#N)c(-c1ccc(S(=O)(=O)N[C@@H](C)C(F)(F)F)cn1)n2-c1ccc(F)cn1 [compound 777, 6-[3-cyano-6-ethyl-5-fluoro-1-(5-fluoropyridin-2-yl)-1H-indol-2-yl]-N-[(2S)-1,1,1-trifluoropropan-2-yl]pyridine-3-sulfonamide]	210 to 212	> 6.30
CC(C)NS(=O)(=O)c1cnc(-c2c(C(N)=O)c3ccc(Cl)cc3n2C2CCC2)nc1 [compound 780, 6-chloro-1-cyclobutyl-2-[5-(propan-2-ylsulfamoyl)pyrimidin-2-yl]-1H-indole-3-carboxamide]	251 to 253	> 6.30
CC(C)NS(=O)(=O)c1cnc(-c2c(C(N)=O)c3ccc(OC(F)(F)F)cc3n2C2CCC2)nc1 [compound 781, 1-cyclobutyl-2-[5-(propan-2-ylsulfamoyl)pyrimidin-2-yl]-6-(trifluoromethoxy)-1H-indole-3-carboxamide]	222 to 223	> 6.30
